Consider five molecules from paper PMC5309245, “Discovery and Characterization of Diazenylaryl Sulfonic Acids as Inhibitors of Viral and Bacterial Neuraminidases” (Frontiers in Microbiology, 2017).

A value given as a limit tells only on which side of the number the result lay.

Series [1] concerns S. pneumoniae DSM20566 biofilm. In words: Biofilm inhibition assay. It is filed as cell-based, Streptococcus pneumoniae DSM20566. Particulars: for 50% inhibitory concentration, S. pneumoniae DSM20566 biofilm formation: 24 h, maximum 50 μM.
Series [2] concerns the target T1, S. pneumoniae DSM20566 NA (NanA) (Streptococcus pneumoniae, UniProt P62575).
T1 construct: host or cells: either rNanA from E. coli BL21(DE3) or total precipitated protein of S. pneumoniae DSM20566
Nature of the series: FL NA inhibition assay, S. pneumoniae DSM20566. It is filed as biochemical. Particulars: MUNANA substrate; read-out: NA inhibition using FL assay IC50, S. p. DSM20566.

A further series in a line: in vitro. Conditions: dog.
For series [3], the system named is 8178/09-, WSN/33-, or HK/68-induced cytopathic effect. Nature of the series: CPE inhibition assay (viruses not separated). In kind it is cell-based. Particulars: Influenza A virus, MDCK, read-out: IC50 of inhibition of the 8178/09-, WSN/33-, or HK/68-induced cytopathic effect.
For series [4], the system named is human erythrocytes. It is filed as cell-based. Conditions: human erythrocytes, 4 h at 37°C and 12 h at 4°C. The method, then: (§1) Viral (whole virus) and bacterial NA activity as well as their inhibition were measured by using a fluorescence (FL) assay with the substrate 2′-(4-methylumbelliferyl)-α-D-N-acetylneuraminic acid sodium salt hydrate (MUNANA, 100 μM; Sigma-Aldrich GmbH, Taufkirchen, Germany), and/or a hemagglutination (HA)-based NA inhibition assay (HA assay) with human erythrocytes (Institute of Transfusion Medicine, University Hospital Jena, Jena, Germany), both assays as published recently (Richter et al., [2015]). Recombinant NanA (rNanA) and total precipitated bacterial protein of S. pneumoniae DSM20566 were used in FL and HA assays. Interference of the compounds with the FL signal (self-fluorescence and quenching) was excluded as described previously (Richter et al., [2015]). […] Each compound was tested at least three times in both NA inhibition assays.
Supplementary Table 1. […]
eTest compounds lysed the human erythrocytes (4 h at 37°C and 12 h at 4°C).

The test system of the next series is IAV 5258/09 NA. In words: Hemagglutination (HA)-based NA inhibition assay, IAV 5258/09. In kind it is cell-based, influenza A virus A/Jena/5258/2009 (H1N1). Particulars: human erythrocytes.
Series [5] has as its target IAV WSN/33 NA-wt (whole virus) (Influenza A virus, UniProt P03470). Nature of the series: biochemical. Conditions: for IC50: NA inhibition using FL assay IC50, IAV WSN/33. The arrangement: species or system influenza A virus A/WSN/1933 (H1N1).
In series [6] the test system is influenza A virus 8178/09. In words: microbe, parasite or virus in culture. It is filed as cell-based, influenza A virus A/Jena/8178/2009 (H1N1).
For series [7], the target named is T2, S. pneumoniae DSM20566 NA (Streptococcus pneumoniae, UniProt P62575).
T2 construct: host or cells: either rNanA from E. coli BL21(DE3) or total precipitated protein of S. pneumoniae DSM20566
In words: HA-based NA inhibition assay, S. pneumoniae DSM20566. It is filed as cell-based. Conditions: human erythrocytes.

In another series the test system is influenza A virus HK/68. In words: microbe, parasite or virus in culture. It is filed as cell-based, influenza A virus A/Hong Kong/68 (H3N2).
Series [8] concerns human erythrocytes. It is filed as cell-based. Particulars: human erythrocytes, 2 h at 4°C. On the procedure:
as §1
Supplementary Table 1. Assay interference phenomena of test compounds in the HA-based […]
sample concentrations [µM] in viral HA-assay bacterial HA-assay […]
hem- prevention of erythrocyte hem- erythrocyte agglutinationa virus-induced lysisc agglutinationd lysise […]
cTest compounds lysed the human erythrocytes (2 h at 4°C). […]

For a further series, the system named is influenza A virus WSN/33. In words: microbe, parasite or virus in culture. In kind it is cell-based, influenza A virus A/WSN/1933 (H1N1).
Series [9] concerns S. pneumoniae DSM20566. Nature of the series: Microtiter broth microdilution assay, planktonic growth. It is filed as cell-based, Streptococcus pneumoniae DSM20566. Particulars: 18 h, maximum 50 μM; for IC50: Streptococcus pneumoniae, DSM20566, read-out: 50% inhibitory concentration, S. pneumoniae DSM20566 planktonic growth.
Series [10] addresses IAV HK/68 NA (whole virus) (Influenza A virus, UniProt Q91MA2). In words: biochemical. On the set-up: species or system influenza A virus A/Hong Kong/68 (H3N2).
Series [11] relates to S. pneumoniae DSM20566. Nature of the series: Bactericidal or bacteriostatic activity (subculture on blood agar). In kind it is cell-based, Streptococcus pneumoniae DSM20566. Conditions: 0.1 µM.

Regarding `O=S(=O)(O)c1ccc2c(/N=N/c3ccc(/N=N/c4ccccc4)cc3)c(O)ccc2c1` [Compound 3], in series [1], the “50% inhibitory concentration, S. pneumoniae DSM20566 biofilm formation” value is “Not active”. The IC50 is 11.6 ± 0.15 µM in series [2]; less than 15 µM in series [3]; 14.4 ± 8.16 µM in series [6] (Influenza A virus, MDCK, 48 h, read-out: 50% inhibitory concentration, influenza A virus 8178/09); 13.6 ± 3.18 µM with influenza A virus HK/68 (Influenza A virus, MDCK, 48 h, read-out: 50% inhibitory concentration, influenza A virus HK/68); 52.2 ± 17.9 µM in the series with influenza A virus WSN/33 (Influenza A virus, WSN, MDCK, 48 h, read-out: 50% inhibitory concentration, influenza A virus WSN/33); 20.1 ± 2.24 µM in the series on S. pneumoniae DSM20566 [9]. In addition, in “in vitro”, the CC50 was more than 100 µM. In the series with human erythrocytes [4], the “sample concentrations provoking erythrocyte lysis, bacterial HA-assay” value was “no”. Moreover, in the series with IAV 5258/09 NA, the “NA inhibition using HA assay MIC, IAV 5258/09” value (from here on “NA inhibition … IAV 5258/09”) is on record as “Not active^c”. In addition, the “NA inhibition using FL assay IC50, IAV WSN/33” value in series [5] is on record as “Not active”. Further, in series [7], the “NA inhibition using HA assay MIC, S. p. DSM20566” value (“NA inhibition … S. p. DSM20566” for short) is recorded as “Not active^c”. The “sample concentrations provoking erythrocyte lysis, viral HA-assay” value in the series with human erythrocytes [8] is “no”. In addition, the “NA inhibition using FL assay IC50, IAV HK/68” value (“NA inhibition … IAV HK/68” below) in series [10] is on record as “Not active”.
As for `O=[N+]([O-])c1ccc(/N=N/c2c(O)ccc3cc(S(=O)(=O)O)ccc23)cc1` [Compound 11], in series [1], the “50% inhibitory concentration, S. pneumoniae DSM20566 biofilm formation” value is “Not active”. Besides, the IC50 was determined as 23.2 ± 13.1 µM in [2]; 33.1 ± 4.6 µM in [5]; 77.3 ± 10.6 µM in series [10] (NA inhibition using FL assay IC50, IAV HK/68). Further, the CC50 in “in vitro” was more than 100 µM. In the series with human erythrocytes [4], the “sample concentrations provoking erythrocyte lysis, bacterial HA-assay” value was “no”. Also, the “NA inhibition … IAV 5258/09” value in the series on IAV 5258/09 NA is on record as “Not active”. Besides, the “50% inhibitory concentration, influenza A virus 8178/09” value in [6] is reported as “Not active”. Besides, the “NA inhibition … S. p. DSM20566” value in series [7] is reported as “Not active”. Besides, the “50% inhibitory concentration, influenza A virus HK/68” value in the series with influenza A virus HK/68 is on record as “Not active”. Moreover, the “sample concentrations provoking erythrocyte lysis, viral HA-assay” value in the series with human erythrocytes [8] was “no”. Also, the “50% inhibitory concentration, influenza A virus WSN/33” value with influenza A virus WSN/33 was “Not active”. Also, the “50% inhibitory concentration, S. pneumoniae DSM20566 planktonic growth” value in the series on S. pneumoniae DSM20566 [9] is “Not active”.
Take `C[C@@H](O)[C@H]1C(=O)N2C(C(=O)O)=C(SCCN=CN)C[C@H]12` [Imipenem, imipenem, reference compound]: in the series with S. pneumoniae DSM20566 [11], the “Activity (bactericidal or bacteriostatic)” value was “bactericidal”. Also, in the series with S. pneumoniae DSM20566 [11] (18 h, then subculture), the “cfu per agar plate” value is less than 150.
For the molecule `O=S(=O)(O)c1ccc(/N=N/c2ccc(/N=N/c3c(O)c(S(=O)(=O)O)cc4cc(S(=O)(=O)O)ccc34)cc2)cc1` [Compound 9], in series [1], the “50% inhibitory concentration, S. pneumoniae DSM20566 biofilm formation” value is listed as “Not active”. Further, the IC50 turned out to be 32 ± 10.9 µM in [2] and 22.7 ± 2.91 µM in series [5]. In “in vitro”, this molecule showed a CC50 of more than 100 µM. In the series with human erythrocytes [4], the “sample concentrations provoking erythrocyte lysis, bacterial HA-assay” value is “no”. Moreover, the “NA inhibition … IAV 5258/09” value with IAV 5258/09 NA was “Not active”. Besides, in series [6], the “50% inhibitory concentration, influenza A virus 8178/09” value is given as “Not active”. Further, the “NA inhibition … S. p. DSM20566” value in series [7] was “Not active”. The “50% inhibitory concentration, influenza A virus HK/68” value in the series on influenza A virus HK/68 was “Not active”. Moreover, the “sample concentrations provoking erythrocyte lysis, viral HA-assay” value in the series on human erythrocytes [8] is listed as “no”. Besides, the “50% inhibitory concentration, influenza A virus WSN/33” value with influenza A virus WSN/33 is “Not active”. For the same molecule, the “50% inhibitory concentration, S. pneumoniae DSM20566 planktonic growth” value with S. pneumoniae DSM20566 [9] is given as “Not active”. The “NA inhibition … IAV HK/68” value in series [10] was “Not active”.
For the molecule `O=S(=O)(O)c1cc(S(=O)(=O)O)c2c(/N=N/c3cccc4ccccc34)c(O)ccc2c1` [Compound 16], the inhibition at 50 µM in series [1] (Streptococcus pneumoniae, DSM20566, 50 μM, read-out: Inhibition of biofilm formation at the maximum tested concentration) stood at 46%. Besides, the IC50 in series [2] was 7.68 ± 0.98 µM; in [5] it was 44.3 ± 2.38 µM; in the series with S. pneumoniae DSM20566 [9] it was 12 ± 6.81 µM. Further, the CC50 in “in vitro” is more than 100 µM. For the same molecule, in the series on human erythrocytes [4], the “sample concentrations provoking erythrocyte lysis, bacterial HA-assay” value is on record as “no”. For the same molecule, the “NA inhibition … IAV 5258/09” value in the series on IAV 5258/09 NA worked out at 31.60 ± 0.00 µM. The “50% inhibitory concentration, influenza A virus 8178/09” value in [6] is “Not active”. Also, in series [7], the “NA inhibition … S. p. DSM20566” value came to 24.40 ± 12.47 µM. Besides, the “50% inhibitory concentration, influenza A virus HK/68” value with influenza A virus HK/68 was “Not active”. Besides, the “sample concentrations provoking erythrocyte lysis, viral HA-assay” value in the series with human erythrocytes [8] is “no”. Also, the “50% inhibitory concentration, influenza A virus WSN/33” value with influenza A virus WSN/33 was “Not active”. For the same molecule, the “NA inhibition … IAV HK/68” value in [10] was “Not active”.
